The values below come from patent publication US8829014B2, “Thiazole and thiophene analogues, and their use in treating autoimmune diseases and cancers” (Board of Supervisors of Louisiana State University and …, priority 2006, dated 2014).

Holding throughout (assay type): cell-based
For series [1], the system named is eIF4E. Put plainly: eIF4E inhibitor screen: luciferase under FGF 5′UTR in FaDu cells (highly cap-dependent translation). The note with it: for inhibition of highly cap-dependent translation (summary statement): summary in the disclosure.
Series [2] relates to AP-1. Description: PMA-induced AP-1 luciferase expression in HEK cells.
The subject of series [3] is vascular smooth muscle cells (VSMC). Put plainly: LDH release cytotoxicity in VSMC. The note with it: rat, 48 h, 10 μM. The protocol: (§1) Additional compounds have also been tested for their ability to inhibit both TNF-α-induced NF-κB—expression and PMA-induced AP-1 expression. In both tests, the compound was added for 1 h, then the appropriate inducer was added, and luciferase activity was monitored 24 h later. Values were then normalized to the vehicle control, DMSO. Following the initial luciferase screens, studies were conducted to assess the cytotoxicity of the compounds in normal cells such as VSMC, HUVEC, or HPT cells. Human umbilical vein endothelial cells (HUVEC) represent the normal endothelium, vascular smooth muscle cells (VSMC) were represented by cells from the adult rat aorta, and human proximal tubule (HPT) cells represent the normal proximal tubule in vivo. These cells were grown to near confluency in multi-well plates, and were then treated for 48 h with either vehicle (0.1% DMSO) or 10 μM of each drug candidate. Following treatment, the media from the VSMC and HUVEC incubations were removed, and the amount of lactate dehydrogenase (LDH) released into the medium was determined with a commercial kit. LDH is normally confined to the cytosol, and its release represents “leakiness” of the plasma membrane. LDH activity was expressed as % increase over vehicle-treated cells. In another assay of viability, the treated VSMC and HUVEC were removed by trypsinization and treated with trypan blue, a dye that is taken up only by dead cells. The number of both live and dead cells was counted using an automated cell viability analyzer. The % decrease in numbers of viable cells was determined. Toxicity in the treated HPT cells was determined by the ethidium homodimer (EthHD) uptake assay. EthHD is a fluorescent dye that is excluded from live cells, but is taken up by cells that have lost permeability barriers. Inside the cell, EthHD produces a strong fluorescent signal, which is proportional to the number of dead cells. Results were expressed as a % increase in cell death over vehicle-treated cells. The lead compounds were also tested in two pairs of cell lines from either the skin or prostate, one tumorigenic and one non-tumorigenic, to test for any differences in toxicity or heightened sensitivity in the tumorigenic lines. The cells were treated for 48 h with vehicle (0.1% DMSO) or 10 μM of each drug candidate. Following treatment, the viability of the cells was determined by the MTT assay. In this assay, the MTT dye is converted only in viable cells by intracellular enzymes to a colorimetric product that is quantitated by a microplate reader.
(§2) For the results in Table 13, cells were grown to near confluency in multi-well plates, then treated for 48 h with either vehicle (0.1% DMSO) or 10 μM of each drug candidate. Following treatment, the media from the VSMC and HUVEC incubations were removed, and the amount of lactate dehydrogenase (LDH) released into the medium was determined with a commercial kit and expressed as a % increase over vehicle-treated cells. HPT toxicity was determined by the ethidium homodimer (EthHD) uptake assay. Inside the cell, EthHD produces a strong fluorescent signal, which is proportional to the amount of cell death, expressed as a % increase in cell death over vehicle-treated cells. The lead compounds were also tested in two pairs of cell lines from the skin or prostate, one tumorigenic and one non-tumorigenic, to test for differing toxicity or heightened sensitivity in the tumorigenic lines. The cells were treated for 48 h with vehicle (0.1% DMSO) or 10 μM of each drug candidate, and the viability of the cells was determined by the MTT assay, expressed as a % decrease in viability compared to vehicle-treated cells. The in vivo inflammation model measured the % inhibition of rat paw edema induced by carageenan injection.
On the technique in general: Release of lactate dehydrogenase indicates damage to the cell membrane.

For series [4] the test system is unchanged. Put plainly: Trypan blue viability count in VSMC. The note with it: rat, 48 h, 10 μM. The protocol: as §1
The test system of series [5] is Human umbilical vein endothelial cells (HUVEC). Description: Trypan blue viability count in HUVEC. The note with it: human, 48 h, 10 μM. The method, then: as §1
Series [6] concerns human proximal tubule (HPT) cells. Description: Ethidium homodimer (EthHD) uptake toxicity assay in HPT cells. The note with it: 10 μM, 48 h, relative to vehicle. The method, then:
as §1, §2

Series [7] in a line: MTT viability in skin cell line pair, tumorigenic and non-tumorigenic. The note with it: human.

Marks after values point to notes of the source that are not given here. Some results are limits rather than exact numbers.

Regarding `COc1ccc(-n2c(-c3sc(Nc4ccc(Cl)cc4)nc3-c3ccccc3)nc3ccccc3c2=O)cc1` [Example 225, 2-[2-(4-Chloro-phenylamino)-4-phenyl-thiazol-5-yl]-3-(4-methoxyphenyl)-3H-quinazolin-4-one], the “inhibition of highly cap-dependent translation (summary statement)” value in series [1] is on record as “capable of inhibiting”.

Take `CNc1nc(C)c(-c2nc3ccccc3c(=O)n2-c2ccc(Cl)cc2)s1` [Example 244, 2-(4-Methyl-2-methylamino-thiazol-5-yl)-3-(4-chloro-phenyl)-3H-quinazolin-4-one]: the AP-1 % inhibition in series [2] (PMA-induced, compound added 1 h before inducer, luciferase 24 h later, normalized to DMSO vehicle) is recorded as 87** %. Also, the “LDH release % Increase VSMC” value in series [3] is 68# %. Moreover, the “Viable Cells % Decrease VSMC” value in series [4] is given as 70# %. For the same compound, the “Viable Cells % Decrease HUVEC” value in series [5] was 63# %. The “Cell Death (EthHD) % Increase HPT” value in series [6] was 180# %. Further, the cytotoxicity at 48 h, 10 μM in series [7] (Viability (MTT) % Decrease HaCaT) was found to be 25%; in series [7] (Viability (MTT) % Decrease SRB12-p9) it was 28%.

As to “Bis-[2-(4-Chloro-phenylamino)-4-benzayl-thiazole-5-yl]-methanone [Example 134]”, the “luciferase expression under the control of the FGF 5′UTR” value in series [1] (1.0 μM, 48 h, FaDu UTR cells, normalized to DMSO (FIG. 8)) is listed as “inhibited luciferase expression”. The “inhibition of luciferase activity (FGF 5′UTR)” value in series [1] (highest concentration tested) was greater than 60%. In series [1], the “inhibition of highly cap-dependent translation (summary statement)” value is “capable of inhibiting”. The “AP-1 inhibition @ 1 uM” value in series [2] (1 uM, luciferase in HEK/AP-1 cells, as described in Example 398) turned out to be 72.77.
